Our source for the IC50 values is patent publication US20260015363A1, “SUBSTITUTED PYRIMIDINE-FUSED RING INHIBITOR, METHOD FOR PREPARING SAME, AND USE THEREOF” (Suzhou Zelgen Biopharmaceuticals Co., Ltd., priority 2022, published 2026).

By IC50 is commonly meant the concentration needed to halve the response being measured.

One experiment relates to AsPC-1 (G12D). The experiment is described as follows: KRAS mutant cell proliferation inhibition assay (CellTiter-Glo 3D), AsPC-1. As to conditions: AsPC-1 (G12D) cells, 7 days. The class given is cell-based, human. Here is the method: (§1) Positive control: MRTX1133
(§2) • (a) The cells were thawed in T75 cell culture flasks: • (b) When 80%-90% cell confluence was achieved, the cells were passaged.
(§3) The diluted test compound was added to a 384-well cell culture plate using a nanoliter pipetting system, and replicate wells were set. An equal volume of medium was added to the positive control group; an equal volume of DMSO was added to the negative control group. The plate was centrifuged at 1000 rpm at room temperature for 1 min.
(§4) The cells were seeded into a) 384-well culture plate. An equal volume of cells was added to the negative control group, and only an equal volume of medium was added to the positive control group. The plate was centrifuged at 1000 rpm at room temperature for 1 min. The final DMSO concentration in the final compound was 0.5%. The plate was incubated in a thermostatic incubator at 37° C. with 5% CO2 for 7 days.
(§5) CellTiter-Glo® 3D was added to b) 384-well cell culture plate at 20 μL/well. The plate was shaken at 320 rpm in the dark for 20 min, and incubated at room temperature in the dark for 2 h. The luminescence values were read using an Envision multi-mode microplate reader.
(§6) The inhibition rates (IRs) of the test compounds were calculated according to the following formula: IR (%)=(1−(RLU compound−RLU blank control)/(RLU vehicle control−RLU blank control))×100%. The inhibition rates of the compounds at different concentrations were calculated in Excel, and then inhibition curves were plotted and relevant parameters including minimum inhibition rate, maximum inhibition rate and IC50 were calculated using GraphPad Prism software.
A general note: Cellular ATP, detected with luciferase, serves as a proxy for viable cell number.

The subject of a further experiment is MNK1 (WT). The experiment is described as follows: Cell proliferation inhibition assay (CellTiter-Glo 3D), MNK1. It is filed as cell-based, human. As to conditions: MNK1 (WT) cells, 7 days. The protocol:
as §1, §2, §3, §4, §5, §6

Another experiment deals with H727 (G12V). Nature of the experiment: KRAS mutant cell proliferation inhibition assay (CellTiter-Glo 3D), H727. The class given is cell-based, human. Conditions: H727 (G12V) cells, 7 days. Here is the method:
as §1, §2, §3, §4, §5, §6

The next experiment concerns PSN-1 (G12R). The experiment is described as follows: KRAS mutant cell proliferation inhibition assay (CellTiter-Glo 3D), PSN-1. The class given is cell-based. As to conditions: PSN-1 (G12R) cells, 7 days. Here is the method:
as §1, §2, §3, §4, §5, §6

For the next experiment, the system named is SW480 (G12V). Nature of the experiment: KRAS mutant cell proliferation inhibition assay (CellTiter-Glo 3D), SW480. As to conditions: SW480 (G12V) cells, 7 days. It is filed as cell-based. Here is the method: as §1, §2, §3, §4, §5, §6

SMILES strings stand for the structures. Counter-ions that a name gives are not always drawn. Like-named read-outs stand apart in the source and are kept apart here. A value given as a limit tells only on which side of the number the result lay.

For the compound `CCc1c(F)ccc2cc(O)cc(-c3ncc4c(N5CCC[C@](C)(O)C5)nc(OCC56CCCN5CC5(C6)CC5(F)F)nc4c3F)c12` (stereo in doubt) [Example A-13A, (S)-1-(2-(((trans)-2,2-difluorodihydro-1′H,3′H-spiro[cyclopropane-1,2′-pyrrolizin]-7a′ (5′H)-yl)methoxy)-7-(8-ethyl-7-fluoro-3-hydroxynaphthalen-1-yl)-8-fluoropyrido[4,3-d]pyrimidin-4-yl)-3-methylpiperidin-3-ol], the IC50 in the experiment with AsPC-1 (G12D) is greater than 1000 nM; in the experiment with MNK1 (WT), 634 nM; in the experiment with H727 (G12V), 1990 nM; in the experiment with PSN-1 (G12R) (read-out: PSN1 IC50), greater than 10000 nM.

As to `CCc1c(F)ccc2cc(O)cc(-c3ncc4c(N5CCC[C@@](C)(O)C5)nc(OCC56CCCN5CC5(C6)CC5(F)F)nc4c3F)c12` (stereo in doubt) [Example A-13B, (R)-1-(2-(((trans)-2,2-difluorodihydro-l′H,3′H-spiro[cyclopropane-1,2′-pyrrolizin]-7a′ (5′H)-yl)methoxy)-7-(8-ethyl-7-fluoro-3-hydroxynaphthalen-1-yl)-8-fluoropyrido[4,3-d]pyrimidin-4-yl)-3-methylpiperidin-3-ol], the half-maximal inhibitory concentration (IC50) was 18.8 nM in the experiment with AsPC-1 (G12D), 12.9 nM in the experiment on MNK1 (WT), 51.7 nM in the experiment with H727 (G12V) and 506 nM in the experiment on PSN-1 (G12R) (read-out: PSN1 IC50).

As to `CCc1c(F)ccc2cc(O)cc(N3CCc4c(nc(OCC56CCCN5C[C@@]5(C6)CC5(F)F)nc4N4CCCn5nc(C(=O)N(C)C)cc5C4)C3)c12` (stereo in doubt) [Example B-14, 5-(2-(((1R,7a′R)-2,2-Difluorodihydro-1′H,3′H-spiro[cyclopropane-1,2′-pyrrolizin]-7a′ (5′H)-yl)methoxy)-7-(8-ethyl-7-fluoro-3-hydroxynaphthalen-1-yl)-5,6,7,8-tetrahydropyrido[3,4-d]pyrimidin-4-yl)-N,N-dimethyl-5,6,7,8-tetrahydro-4H-pyrazolo[1,5-a][1,4]diazepine-2-carboxamide hydrochloride], the IC50 in the experiment on AsPC-1 (G12D) (Homo sapiens, ASPC1, 168 h) was 26.9 nM; in the experiment with MNK1 (WT) (Homo sapiens, 168 h) it was 92.3 nM; with H727 (G12V) (Homo sapiens, NCI-H727, 168 h) it was 127 nM; in the experiment with PSN-1 (G12R) (Homo sapiens, PSN1, 168 h), 7560 nM.

For `Nc1cc(Cl)c(C(F)(F)F)c(-c2ncc3c(N4CCCC5(CCO5)C4)nc(OC[C@@]45CCCN4C[C@@]4(CC4(F)F)C5)nc3c2F)c1` (stereo partly drawn) [Example A-14, 3-Chloro-5-(2-(((1S,7a'S)-2,2-difluorodihydro-1′H,3′H-spiro[cyclopropane-1,2′-pyrrolizin]-7a′ (5′H)-yl)methoxy)-8-fluoro-4-(1-oxa-6-azaspiro[3.5]nonan-6-yl)pyrido[4,3-d]pyrimidin-7-yl)-4-(trifluoromethyl)aniline], the IC50 in the experiment on AsPC-1 (G12D) (Homo sapiens, ASPC1, 168 h) was 61.1 nM; in the experiment on MNK1 (WT) (Homo sapiens, 168 h) it was 133 nM; with H727 (G12V) (Homo sapiens, NCI-H727, 168 h), 242 nM; in the experiment with PSN-1 (G12R) (Homo sapiens, PSN1, 168 h) it was greater than 10000 nM.

`C#Cc1c(F)ccc2cc(O)cc(-c3ncc4c(N5CCCC6(CCO6)C5)nc(OC[C@@]56CCCN5C[C@@]5(CC5(F)F)C6)nc4c3F)c12` (stereo partly shown) [Example A-15, 4-(2-(((1.S,7a'S)-2,2-difluorodihydro-1′H,3′H-spiro[cyclopropane-1,2′-pyrrolizin]-7a′ (5′H)-yl)methoxy)-8-fluoro-4-(1-oxa-6-azaspiro[3.5]nonan-6-yl)pyrido[4,3-d]pyrimidin-7-yl)-5-ethynyl-6-fluoronanhthalen-2-ol]: the 50% inhibitory concentration (IC50) was 164 nM in the experiment on AsPC-1 (G12D) (Homo sapiens, ASPC1, 168 h); 171 nM in the experiment on MNK1 (WT) (Homo sapiens, 168 h); 450 nM in the experiment with H727 (G12V) (Homo sapiens, NCI-H727, 168 h); greater than 10000 nM with PSN-1 (G12R) (Homo sapiens, PSN1, 168 h).

`CCc1c(F)ccc2cc(O)cc(-c3ncc4c(N5CCC[C@@]6(CCO6)C5)nc(OC[C@@]56CCCN5C[C@@]5(CC5(F)F)C6)nc4c3F)c12` [Example A-16A, 4-(2-(((15,7a'S)-2,2-difluorodihydro-1′H,3′H-spiro[cyclopropane-1,2′-pyrrolizin]-7a′ (5′H)-yl)methoxy)-8-fluoro-4-((R)-1-oxa-6-azaspiro[3.5]nonan-6-yl)pyrido[4,3-d]pyrimidin-7-yl)-5-ethyl-6-fluoronaphthalen-2-ol]: the figures for the half-maximal inhibitory concentration (IC50) in the experiment with SW480 (G12V) and in the experiment on AsPC-1 (G12D) were 11.1 nM and 5.7 nM, respectively.

As to `CCc1c(F)ccc2cc(O)cc(-c3ncc4c(N5CCCn6nc(C(=O)N(C)C)cc6C5)nc(OC[C@@]56CCCN5C[C@@]5(CC5(F)F)C6)nc4c3F)c12` [Example A-24, 5-(2-(((1S,7a'S)-2,2-Difluorodihydro-1′H,3′H-spiro[cyclopropane-1,2′-pyrrolizin]-7a′ (5′H)-yl)methoxy)-7-(8-ethyl-7-fluoro-3-hydroxynaphthalen-1-yl)-8-fluoropyrido[4,3-d]pyrimidin-4-yl)-N,N-dimethyl-5,6,7,8-tetrahydro-4H-pyrazolo[1,5-a][1,4]diazepine-2-carboxamide], the IC50 was 11.1 nM in the experiment on AsPC-1 (G12D) (Homo sapiens, ASPC1, 168 h); 19.7 nM with MNK1 (WT) (Homo sapiens, 168 h); 101 nM with H727 (G12V) (Homo sapiens, NCI-H727, 168 h); greater than 10000 nM in the experiment on PSN-1 (G12R) (Homo sapiens, PSN1, 168 h).

Turning to `CCc1c(F)ccc2cc(O)cc(-c3ncc4c(N5CCCOC6CC65)nc(OC[C@@]56CCCN5C[C@@]5(CC5(F)F)C6)nc4c3F)c12` (stereo partly drawn) [Example A-28, 4-(4-(2-Oxa-6-azabicyclo[5.1.0]octan-6-yl)-2-(((1S,7a'S)-2,2-difluorodihydro-1′H,3′ H-spiro[cyclopropane-1,2′-pyrrolizin]-7a′ (5′H)-yl)methoxy)-8-fluoropyrido[4,3-d]pyrimidin-7-yl)-5-ethyl-6-fluoronaphthalen-2-ol], the concentration for half-maximal inhibition (IC50) with SW480 (G12V) (Homo sapiens, 168 h) worked out at 37.3 nM; in the experiment on AsPC-1 (G12D) (Homo sapiens, ASPC1, 168 h), 27.6 nM.

Consider `C#Cc1c(F)ccc2cc(O)cc(-c3ncc4c(N5CCCOC6CC65)nc(OC[C@@]56CCCN5C[C@@]5(CC5(F)F)C6)nc4c3F)c12` (stereo partly drawn) [Example A-29, 4-(4-((cis)-2-Oxa-6-azabicyclo[5.1.0]octan-6-yl)-2-(((1,5,7a'S)-2,2-difluorodihydro-1′H,3′H-spiro[cyclopropane-1,2′-pyrrolizin]-7a′ (5′H)-yl)methoxy)-8-fluoropyrido[4,3-d]pyrimidin-7-yl)-5-ethynyl-6-fluoronaphthalen-2-ol], for which the half-inhibitory concentration (IC50) came out at 2.1 nM in the experiment with SW480 (G12V) (Homo sapiens, 168 h) and 4.85 nM with AsPC-1 (G12D) (Homo sapiens, ASPC1, 168 h).

Turning to `CCc1c(F)ccc2cc(O)cc(-c3ncc4c(N5CCC6CCC(C5)O6)nc(OC[C@@]56CCCN5C[C@@]5(CC5(F)F)C6)nc4c3F)c12` (stereo partly shown) [Example A-31], the IC50 in the experiment with SW480 (G12V) (Homo sapiens, 168 h) stood at 651 nM; with AsPC-1 (G12D) (Homo sapiens, ASPC1, 168 h), 736 nM.

`CCc1c(F)ccc2cc(O)cc(-c3ncc4c(N5CCOCCC5C)nc(OC[C@@]56CCCN5C[C@@]5(CC5(F)F)C6)nc4c3F)c12` (stereo partly drawn) [Example A-37, 4-(2-(((1S,7a'S)-2,2-Difluorodihydro-1′H,3′H-spiro[cyclopropane-1,2′-pyrrolizin]-7a′ (5′H)-yl)methoxy)-8-fluoro-4-(5-methyl-1,4-oxazepan-4-yl)pyrido[4,3-d]pyrimidin-7-yl)-5-ethyl-6-fluoronaphthalen-2-ol]: the half-maximal inhibitory concentration (IC50) with SW480 (G12V) (Homo sapiens, 168 h) came to 307 nM; in the experiment with AsPC-1 (G12D) (Homo sapiens, ASPC1, 168 h), 572 nM.

Turning to `C#Cc1c(F)ccc2cc(O)cc(-c3ncc4c(N(C)[C@H]5C[C@@H]5F)nc(OC[C@@]56CCCN5C[C@@]5(CC5(F)F)C6)nc4c3F)c12` [Example A-44, 4-(2-(((15,7a'S)-2,2-Difluorodihydro-1′H,3′H-spiro[cyclopropane-1,2′-pyrrolizin]-7a′ (5′H)-yl)methoxy)-8-fluoro-4-(((trans)-2-fluorocyclopropyl)(methyl)amino)pyrido[4,3-d]pyrimidin-7-yl)-5-ethynyl-6-fluoronaphthalen-2-ol], the concentration for half-maximal inhibition (IC50) was 7.13 nM in the experiment with SW480 (G12V) (Homo sapiens, 168 h) and 25.1 nM in the experiment on AsPC-1 (G12D) (Homo sapiens, ASPC1, 168 h).

Consider `CCc1c(F)ccc2cc(O)cc(-c3ncc4c(N(C)[C@H]5C[C@@H]5F)nc(OC[C@@]56CCCN5C[C@@]5(CC5(F)F)C6)nc4c3F)c12` [Example A-45, 4-(2-(((1,5,7a'S)-2,2-Difluorodihydro-1′H,3′H-spiro[cyclopropane-1,2′-pyrrolizin]-7a′ (5′H)-yl)methoxy)-8-fluoro-4-(((trans)-2-fluorocyclopropyl)(methyl)amino)pyrido[4,3-d]pyrimidin-7-yl)-5-ethyl-6-fluoronaphthalen-2-ol], for which the IC50 worked out at 41 nM with SW480 (G12V) (Homo sapiens, 168 h) and 74.4 nM in the experiment on AsPC-1 (G12D) (Homo sapiens, ASPC1, 168 h).

`CN(c1nc(OC[C@@]23CCCN2C[C@@]2(CC2(F)F)C3)nc2c(F)c(-c3cc(N)cc(Cl)c3C(F)(F)F)ncc12)[C@H]1C[C@@H]1F` [Example A-46, 7-(5-Amino-3-chloro-2-(trifluoromethyl)phenyl)-2-(((15,7a'S)-2,2-difluorodihydro-1′H,3′H-spiro[cyclopropane-1,2′-pyrrolizin]-7a′ (5′H)-yl)methoxy)-8-fluoro-N-((trans)-2-fluorocyclopropvl)-N-methylpyrido[4,3-d]pyrimidin-4-amine]: the IC50 in the experiment on SW480 (G12V) (Homo sapiens, 168 h) stood at 482 nM; in the experiment on AsPC-1 (G12D) (Homo sapiens, ASPC1, 168 h), 732 nM.
